This is an account of results in patent US4705788A, “Novel antibacterial 7-amino-1(substituted cyclopropyl)-1,4-dihydro-4-oxo-3-quinolinecarboxylic acids” (Bayer Aktiengesellschaft, priority 1985, dated 1987).

What all share (assay): MIC, agar dilution test (Isosensitest medium), Denley multipoint inoculator
Common to all, as to type: cell-based
(In general: In agar dilution, organisms are placed on agar that contains the substance at set levels.)

In one assay the test system is E. coli A 261. The note with it: Escherichia coli, A261, strain E. coli A 261. An excerpt:
(§1) Agar dilution test (Isosensitest medium); Denley multipoint inoculator

The next assay deals with E. coli Neumann. To be noted: Escherichia coli, strain E. coli Neumann.
Description: as §1

A further assay concerns E. coli T 7. The note with it: Escherichia coli, T7, strain E. coli T 7.
Description: as §1

In another assay the test system is Klebsiella 8085. The note with it: strain Klebsiella 8085.
Description: as §1

In brackets after ≈: the same amount, converted by molar mass.

What is called MIC is the least concentration at which growth counts as inhibited. Low values mean greater potency, high ones weaker potency.

Take `CCn1cc(C(=O)O)c(=O)c2cc(F)c(N3CCNCC3)cc21` [Norfloxacin, reference compound]: the MIC against E. coli A 261 worked out at 0.03 µg/mL (≈ 0.0939 µM); against E. coli Neumann, 0.06 µg/mL (≈ 0.188 µM); in the assay on E. coli T 7, 0.06 µg/mL (≈ 0.188 µM); with Klebsiella 8085, 0.125 µg/mL (≈ 0.391 µM).

Consider `CC1CN(c2cc3c(cc2F)c(=O)c(C(=O)O)cn3C2(C)CC2)CCN1` (stereo not drawn) [Example 3], for which the MIC in the assay with E. coli A 261 is 0.03 µg/mL (≈ 0.0835 µM); with E. coli Neumann, 0.06 µg/mL (≈ 0.167 µM); with E. coli T 7, 0.03 µg/mL (≈ 0.0835 µM); in the assay with Klebsiella 8085 it was 0.06 µg/mL (≈ 0.167 µM).

Turning to `CC1(n2cc(C(=O)O)c(=O)c3cc(F)c(N4CCNCC4)cc32)CC1` [Example 1, 6-fluoro-1,4-dihydro-1-(1-methylcyclopropyl)-4-oxo-7-(1-piperazinyl)-3-quinolinecarboxylic acid], the MIC against E. coli A 261 is not above 0.015 µg/mL; in the assay on E. coli Neumann, 0.06 µg/mL (≈ 0.174 µM); against E. coli T 7 it was not above 0.015 µg/mL; in the assay on Klebsiella 8085 it was 0.03 µg/mL (≈ 0.0869 µM).
